Measured values taken from publication PMC5404560, “Towards Selective Mycobacterial ClpP1P2 Inhibitors with Reduced Activity against the Human Proteasome” (Antimicrobial Agents and Chemotherapy, 2017).
Converted amounts (≈) assume the structure as drawn. “And” between values parts separate entries of the source, which are not always exact repeats. Identical values can stand only once. Counter-ions that a name gives are not always drawn. Like-named read-outs stand apart in the source and are kept apart here. Residues, ends and D or L forms follow the SMILES beside them.

Tests used:
M. smegmatis ΔprcAB = type: cell-based; settings: 24 h exposure, OD600; concentration inhibiting 50% of growth
M. tuberculosis H37Rv = assay: microbe, parasite or virus in culture; type: cell-based; settings: for MIC50 / MIC90: Mycobacterium tuberculosis, H37RV, 120 h; for MIC50: read-out: MIC50 (μM) against M. tuberculosis H37Rv; for MIC90: read-out: MIC90 (μM) against M. tuberculosis H37Rv
ClpP1P2 = ClpP1P2 (Mycolicibacterium smegmatis, UniProt A0R197+A0R198); assay: ClpP1P2 inhibition whole-cell RFP-SsrA reporter assay; settings: 3 h incubation
Sequence of ClpP1P2 (A0R198 4-203): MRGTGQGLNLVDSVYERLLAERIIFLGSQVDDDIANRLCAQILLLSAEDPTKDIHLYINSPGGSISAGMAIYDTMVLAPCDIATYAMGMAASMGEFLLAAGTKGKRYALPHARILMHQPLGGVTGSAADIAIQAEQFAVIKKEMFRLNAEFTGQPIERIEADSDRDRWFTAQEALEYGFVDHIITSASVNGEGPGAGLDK
Sequence of ClpP1P2 (A0R197 17-218): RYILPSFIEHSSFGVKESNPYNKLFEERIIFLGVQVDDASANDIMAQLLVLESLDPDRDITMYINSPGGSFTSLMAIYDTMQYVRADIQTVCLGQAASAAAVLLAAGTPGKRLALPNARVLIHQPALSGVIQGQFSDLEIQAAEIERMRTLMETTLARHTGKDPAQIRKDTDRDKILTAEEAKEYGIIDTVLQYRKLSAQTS

HepG2 proteasome = HepG2 proteasome (Homo sapiens, UniProt P20618+P28074); assay: Cell-based proteasome CT-like peptidase inhibition assay (Proteasome-Glo)
Experimental: A cell-based CT-like peptidase assay was performed using the Proteasome-Glo cell-based assay reagent (Promega) according to the manufacturer's guidelines. Briefly, HepG2 cells (10^4 cells/well) were treated with the compounds indicated in the figures for 2 h, followed by incubation with the luminescent substrate for 10 min. Luminescence was detected with a Tecan M200 Pro plate reader.

M. smegmatis wild-type = assay: Growth inhibition, M. smegmatis wild type; type: cell-based; settings: Mycolicibacterium smegmatis; wild-type strain
Mycobacterium bovis BCG = assay: microbe, parasite or virus in culture; type: cell-based; settings: Mycobacterium tuberculosis variant bovis BCG, read-out: MIC50 for Mycobacterium bovis BCG
[1] = MTS cytotoxicity assay, Vero; type: cell-based; settings: African green monkey
Experimental: (§1) The MTS (Promega) reduction assay was used according to manufacturer's guidelines to assess Vero (ATCC […]) and HepG2 (ATCC HB-8065) cell viability. […] Carbonyl cyanide m-chlorophenylhydrazone (CCCP) was used as a cytotoxic positive control. Cytotoxicity was determined twice in independent experiments.

[2] = MTS cytotoxicity assay, HepG2; type: cell-based, human; settings: human
Experimental: as §1

Elastase = assay: Protease panel: Elastase; type: biochemical; settings: supplement panel table, test and control compound
Experimental: (§2) Protease panel testing was carried out by Reaction Biology Corporation.

FXa = biological target: T1, FXa (Homo sapiens, UniProt P00742); assay: Protease panel: FXa; type: biochemical; settings: supplement panel table, test and control compound
T1 construct: FXa serine peptidase
T1 sequence (P00742 235-488 limits assumed): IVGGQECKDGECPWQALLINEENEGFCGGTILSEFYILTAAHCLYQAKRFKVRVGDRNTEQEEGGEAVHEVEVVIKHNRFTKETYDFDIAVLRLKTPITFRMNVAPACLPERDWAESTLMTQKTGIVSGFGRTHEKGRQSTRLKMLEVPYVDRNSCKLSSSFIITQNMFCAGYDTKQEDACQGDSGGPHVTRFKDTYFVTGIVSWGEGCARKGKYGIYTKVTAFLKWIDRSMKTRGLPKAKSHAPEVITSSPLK
T1 sequence (P00742 41-179 partner limits assumed): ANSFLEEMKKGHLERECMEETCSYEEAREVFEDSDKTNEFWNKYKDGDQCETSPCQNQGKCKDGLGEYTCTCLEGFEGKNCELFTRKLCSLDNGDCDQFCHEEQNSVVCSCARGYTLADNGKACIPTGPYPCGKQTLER
Experimental: as §2

Kallikrein 5 = Kallikrein 5 (Homo sapiens, UniProt Q9Y337); assay: Protease panel: Kallikrein 5; type: biochemical; settings: supplement panel table, test and control compound
Experimental: as §2

Kallikrein 7 = Kallikrein 7 (Homo sapiens, UniProt P49862); assay: Protease panel: Kallikrein 7; type: biochemical; settings: supplement panel table, test and control compound
Experimental: as §2

Kallikrein 12 = Kallikrein 12 (Homo sapiens, UniProt Q9UKR0); assay: Protease panel: Kallikrein 12; type: biochemical; settings: supplement panel table, test and control compound
Experimental: as §2

Kallikrein 13 = Kallikrein 13 (Homo sapiens, UniProt Q9UKR3); assay: Protease panel: Kallikrein 13; type: biochemical; settings: supplement panel table, test and control compound
Sequence of Kallikrein 13 (Q9UKR3 17-277, species assumed): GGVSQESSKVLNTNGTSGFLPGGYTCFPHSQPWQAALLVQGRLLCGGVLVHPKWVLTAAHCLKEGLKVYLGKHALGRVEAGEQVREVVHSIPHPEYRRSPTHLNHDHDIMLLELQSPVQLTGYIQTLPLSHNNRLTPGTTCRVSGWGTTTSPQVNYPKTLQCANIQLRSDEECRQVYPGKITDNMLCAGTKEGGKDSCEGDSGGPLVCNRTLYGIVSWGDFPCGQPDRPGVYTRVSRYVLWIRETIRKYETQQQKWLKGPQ
Experimental: as §2

Kallikrein 14 = Kallikrein 14 (Homo sapiens, UniProt Q9P0G3); assay: Protease panel: Kallikrein 14; type: biochemical; settings: supplement panel table, test and control compound
Experimental: as §2

Matriptase 2 = Matriptase 2 (Homo sapiens, UniProt Q8IU80); assay: Protease panel: Matriptase 2; type: biochemical; settings: supplement panel table, test and control compound
Sequence of Matriptase 2 (Q8IU80 whole entry, species assumed): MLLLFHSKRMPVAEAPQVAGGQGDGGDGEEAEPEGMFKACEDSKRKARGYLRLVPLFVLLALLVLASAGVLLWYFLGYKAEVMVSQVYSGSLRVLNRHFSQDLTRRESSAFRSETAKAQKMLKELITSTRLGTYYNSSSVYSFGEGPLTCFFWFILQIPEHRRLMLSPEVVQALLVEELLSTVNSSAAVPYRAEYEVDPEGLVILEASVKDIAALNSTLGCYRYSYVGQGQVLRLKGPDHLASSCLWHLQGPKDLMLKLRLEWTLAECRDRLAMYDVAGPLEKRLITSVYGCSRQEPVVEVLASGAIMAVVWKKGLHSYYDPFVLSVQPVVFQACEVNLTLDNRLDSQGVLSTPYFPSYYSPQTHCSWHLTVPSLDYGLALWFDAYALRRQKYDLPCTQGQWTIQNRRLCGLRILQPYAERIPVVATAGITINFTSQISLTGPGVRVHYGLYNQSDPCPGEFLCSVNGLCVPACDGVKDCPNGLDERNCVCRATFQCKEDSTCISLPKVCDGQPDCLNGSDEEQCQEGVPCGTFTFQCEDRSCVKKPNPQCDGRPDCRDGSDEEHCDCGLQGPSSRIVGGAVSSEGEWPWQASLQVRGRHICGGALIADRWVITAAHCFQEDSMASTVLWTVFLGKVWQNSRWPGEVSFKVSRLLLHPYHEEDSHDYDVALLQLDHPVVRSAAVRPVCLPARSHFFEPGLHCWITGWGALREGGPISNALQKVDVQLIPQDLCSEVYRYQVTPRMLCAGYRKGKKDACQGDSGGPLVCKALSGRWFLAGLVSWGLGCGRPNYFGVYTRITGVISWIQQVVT
Experimental: as §2

Plasma kallikrein = biological target: T2, Plasma kallikrein (Homo sapiens, UniProt P03952); assay: Protease panel: Plasma kallikrein; type: biochemical; settings: supplement panel table, test and control compound
T2 construct: Reaction Biology Corporation (contract testing)
Experimental: as §2

Plasmin = biological target: T3, Plasmin (Homo sapiens, UniProt P00747); assay: Protease panel: Plasmin; type: biochemical; settings: supplement panel table, test and control compound
T3 construct: Reaction Biology Corporation (contract testing)
T3 sequence (P00747 581-810 limits assumed, species assumed): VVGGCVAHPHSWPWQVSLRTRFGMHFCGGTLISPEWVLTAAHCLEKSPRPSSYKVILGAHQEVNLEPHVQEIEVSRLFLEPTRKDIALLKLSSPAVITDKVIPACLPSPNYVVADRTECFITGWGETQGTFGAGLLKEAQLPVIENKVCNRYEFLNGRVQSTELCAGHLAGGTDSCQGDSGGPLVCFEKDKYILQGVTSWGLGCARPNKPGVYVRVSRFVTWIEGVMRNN
T3 sequence (P00747 97-580 partner limits assumed, species assumed): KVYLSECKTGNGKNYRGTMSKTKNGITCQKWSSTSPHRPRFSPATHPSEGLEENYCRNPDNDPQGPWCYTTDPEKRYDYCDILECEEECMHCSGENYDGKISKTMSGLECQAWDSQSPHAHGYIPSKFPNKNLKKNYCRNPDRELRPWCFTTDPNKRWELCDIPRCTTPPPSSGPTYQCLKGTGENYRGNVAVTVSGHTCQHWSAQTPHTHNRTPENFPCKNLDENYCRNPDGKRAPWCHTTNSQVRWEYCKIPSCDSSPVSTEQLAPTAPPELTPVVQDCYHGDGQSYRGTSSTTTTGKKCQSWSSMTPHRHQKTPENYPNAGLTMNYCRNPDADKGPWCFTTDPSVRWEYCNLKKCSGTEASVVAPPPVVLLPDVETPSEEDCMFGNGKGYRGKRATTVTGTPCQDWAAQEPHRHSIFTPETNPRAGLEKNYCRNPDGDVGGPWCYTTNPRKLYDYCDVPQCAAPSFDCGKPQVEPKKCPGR
Experimental: as §2

Thrombin a = biological target: T4, Thrombin a (Homo sapiens, UniProt P00734); assay: Protease panel: Thrombin a; type: biochemical; settings: supplement panel table, test and control compound
T4 construct: Reaction Biology Corporation (contract testing)
Experimental: as §2

Trypsin = assay: Protease panel: Trypsin; type: biochemical; settings: supplement panel table, test and control compound
Experimental: as §2

Tryptase b2 = biological target: T5, Tryptase b2 (Homo sapiens, UniProt P20231); assay: Protease panel: Tryptase b2; type: biochemical; settings: supplement panel table, test and control compound
T5 construct: Reaction Biology Corporation (contract testing)
T5 sequence (P20231 31-275): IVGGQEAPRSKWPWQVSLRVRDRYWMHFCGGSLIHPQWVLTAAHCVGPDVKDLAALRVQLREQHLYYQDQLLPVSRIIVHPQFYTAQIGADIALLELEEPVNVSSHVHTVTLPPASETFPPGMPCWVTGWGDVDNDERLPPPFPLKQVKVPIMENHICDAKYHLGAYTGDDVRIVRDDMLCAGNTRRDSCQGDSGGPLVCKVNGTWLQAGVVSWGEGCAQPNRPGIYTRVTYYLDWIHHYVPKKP
Experimental: as §2

Tryptase g1 = biological target: T6, Tryptase g1 (Homo sapiens, UniProt Q9NRR2); assay: Protease panel: Tryptase g1; type: biochemical; settings: supplement panel table, test and control compound
T6 construct: Reaction Biology Corporation (contract testing)
Experimental: as §2

Urokinase = biological target: T7, Urokinase (Homo sapiens, UniProt P00749); assay: Protease panel: Urokinase; type: biochemical; settings: supplement panel table, test and control compound
T7 construct: Reaction Biology Corporation (contract testing)
Experimental: as §2

Caspase 1 = biological target: T8, Caspase 1 (Homo sapiens, UniProt P29466); assay: Protease panel: Caspase 1; type: biochemical; settings: supplement panel table, test and control compound
T8 construct: Reaction Biology Corporation (contract testing)
T8 sequence (P29466 120-404, species assumed): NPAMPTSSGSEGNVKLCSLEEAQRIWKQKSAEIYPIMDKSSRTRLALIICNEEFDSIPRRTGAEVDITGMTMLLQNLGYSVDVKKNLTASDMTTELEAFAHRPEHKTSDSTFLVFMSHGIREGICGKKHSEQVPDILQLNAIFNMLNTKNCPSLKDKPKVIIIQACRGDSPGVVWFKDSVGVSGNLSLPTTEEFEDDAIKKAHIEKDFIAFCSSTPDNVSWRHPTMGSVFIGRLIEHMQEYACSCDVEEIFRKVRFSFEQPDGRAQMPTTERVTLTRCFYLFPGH
Experimental: as §2

Caspase 2 = biological target: T9, Caspase 2 (Homo sapiens, UniProt P42575); assay: Protease panel: Caspase 2; type: biochemical; settings: supplement panel table, test and control compound
T9 construct: Reaction Biology Corporation (contract testing)
T9 sequence (P42575 whole entry, species assumed): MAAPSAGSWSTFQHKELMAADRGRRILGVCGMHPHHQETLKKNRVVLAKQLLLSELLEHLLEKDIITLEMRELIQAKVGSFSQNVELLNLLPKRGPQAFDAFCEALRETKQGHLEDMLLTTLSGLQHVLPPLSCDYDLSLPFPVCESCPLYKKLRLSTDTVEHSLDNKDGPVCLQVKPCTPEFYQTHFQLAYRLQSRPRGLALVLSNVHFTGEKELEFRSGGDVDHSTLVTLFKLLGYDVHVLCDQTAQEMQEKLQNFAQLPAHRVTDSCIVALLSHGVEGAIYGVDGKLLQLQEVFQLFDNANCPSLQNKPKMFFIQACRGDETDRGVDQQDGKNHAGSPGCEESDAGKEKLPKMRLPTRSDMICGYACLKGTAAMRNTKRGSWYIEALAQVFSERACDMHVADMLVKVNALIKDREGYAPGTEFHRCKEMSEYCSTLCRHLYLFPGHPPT
Experimental: as §2

Caspase 4 = biological target: T10, Caspase 4 (Homo sapiens, UniProt P49662); assay: Protease panel: Caspase 4; type: biochemical; settings: supplement panel table, test and control compound
T10 construct: Reaction Biology Corporation (contract testing)
Experimental: as §2

Caspase 5 = biological target: T11, Caspase 5 (Homo sapiens, UniProt P51878); assay: Protease panel: Caspase 5; type: biochemical; settings: supplement panel table, test and control compound
T11 construct: Reaction Biology Corporation (contract testing)
Experimental: as §2

Caspase 8 = biological target: T12, Caspase 8 (Homo sapiens, UniProt Q14790); assay: Protease panel: Caspase 8; type: biochemical; settings: supplement panel table, test and control compound
T12 construct: Reaction Biology Corporation (contract testing)
T12 sequence (Q14790 217-479, species assumed): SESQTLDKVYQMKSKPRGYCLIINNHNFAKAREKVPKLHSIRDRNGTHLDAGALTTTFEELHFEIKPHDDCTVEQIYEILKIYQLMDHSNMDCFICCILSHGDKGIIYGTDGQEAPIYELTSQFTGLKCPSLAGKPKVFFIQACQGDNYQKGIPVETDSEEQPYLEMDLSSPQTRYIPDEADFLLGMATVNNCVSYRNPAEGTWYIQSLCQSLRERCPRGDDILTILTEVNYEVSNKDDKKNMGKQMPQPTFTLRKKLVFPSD
Experimental: as §2

Caspase 9 = biological target: T13, Caspase 9 (Homo sapiens, UniProt P55211); assay: Protease panel: Caspase 9; type: biochemical; settings: supplement panel table, test and control compound
T13 construct: Reaction Biology Corporation (contract testing)
T13 sequence (P55211 whole entry, species assumed): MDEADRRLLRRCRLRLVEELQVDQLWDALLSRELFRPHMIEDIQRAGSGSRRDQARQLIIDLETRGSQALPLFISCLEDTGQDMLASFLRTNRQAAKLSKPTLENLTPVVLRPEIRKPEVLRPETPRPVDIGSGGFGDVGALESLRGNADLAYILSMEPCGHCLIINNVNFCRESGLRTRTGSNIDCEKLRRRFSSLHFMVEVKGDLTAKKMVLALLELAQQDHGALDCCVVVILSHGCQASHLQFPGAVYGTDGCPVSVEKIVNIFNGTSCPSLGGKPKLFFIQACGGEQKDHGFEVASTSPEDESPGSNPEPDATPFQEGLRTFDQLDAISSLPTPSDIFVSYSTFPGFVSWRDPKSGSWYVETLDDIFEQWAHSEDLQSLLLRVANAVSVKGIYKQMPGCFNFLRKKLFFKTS
Experimental: as §2

Caspase 10 = biological target: T14, Caspase 10 (Homo sapiens, UniProt Q92851); assay: Protease panel: Caspase 10; type: biochemical; settings: supplement panel table, test and control compound
T14 construct: Reaction Biology Corporation (contract testing)
T14 sequence (Q92851 220-521, species assumed): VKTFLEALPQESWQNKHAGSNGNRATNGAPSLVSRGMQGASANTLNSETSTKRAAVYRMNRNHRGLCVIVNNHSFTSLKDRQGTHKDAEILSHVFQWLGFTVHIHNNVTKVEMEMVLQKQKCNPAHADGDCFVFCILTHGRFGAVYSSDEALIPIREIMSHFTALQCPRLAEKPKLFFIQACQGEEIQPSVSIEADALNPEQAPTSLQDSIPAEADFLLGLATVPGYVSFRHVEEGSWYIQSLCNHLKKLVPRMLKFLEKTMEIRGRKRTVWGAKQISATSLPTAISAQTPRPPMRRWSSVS
Experimental: as §2

Caspase 11 = biological target: T15, Caspase 11 (Mus musculus, UniProt P70343); assay: Protease panel: Caspase 11; type: biochemical; settings: supplement panel table, test and control compound
T15 construct: Reaction Biology Corporation (contract testing)
T15 sequence (P70343 81-373): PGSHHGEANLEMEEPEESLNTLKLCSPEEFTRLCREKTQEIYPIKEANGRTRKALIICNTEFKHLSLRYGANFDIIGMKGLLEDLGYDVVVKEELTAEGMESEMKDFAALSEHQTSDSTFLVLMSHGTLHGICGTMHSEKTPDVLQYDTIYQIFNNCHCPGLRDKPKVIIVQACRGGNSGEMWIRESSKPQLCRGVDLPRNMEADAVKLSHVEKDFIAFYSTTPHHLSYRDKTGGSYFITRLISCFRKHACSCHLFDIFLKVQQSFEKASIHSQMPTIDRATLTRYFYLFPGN
Experimental: as §2

[3] = M. smegmatis ΔprcAB IC50 (μM) for ClpP1P2, whole-cell RFP-SsrA reporter

O=C(N[C@@H](Cc1ccc(O)cc1)C(=O)N[C@@H](CCc1ccccc1)B(O)O)c1cnccn1 [Compound 57]
M. smegmatis ΔprcAB MIC50 (M. smegmatis ΔprcAB): 8 ± 2.8 µM | improvement of M. tuberculosis MIC50 over compound 1 (M. tuberculosis H37Rv): 5 fold | MIC50 (μM) against M. tuberculosis H37Rv (M. tuberculosis H37Rv; 5 days): 0.8 ± 0 µM (≈ 0.359 µg/mL) | MIC50 (M. tuberculosis H37Rv; 5 days): 0.8 µM (≈ 0.359 µg/mL) | MIC90 (M. tuberculosis H37Rv; 5 days): 3 µM (≈ 1.34 µg/mL) | IC50 (ClpP1P2; [3]): 7.5 ± 4.5 µM | IC50 (HepG2 proteasome): 533 ± 103 nM

O=C(N[C@@H](Cc1ccccc1)C(=O)N[C@@H](CCc1ccccc1)B(O)O)c1cnccn1 [Compound 32, ((R)-3-phenyl-1-((S)-3-phenyl-2-(pyrazine-2-carboxamido)propanamido)propyl)boronic acid]
M. smegmatis ΔprcAB MIC50 (M. smegmatis ΔprcAB): 7 ± 1 µM | MIC50 (M. tuberculosis H37Rv; 5 days): 6 µM (≈ 2.59 µg/mL) | MIC90 (M. tuberculosis H37Rv; 5 days): 25 µM (≈ 10.8 µg/mL) | IC50 (ClpP1P2; [3]): 7.3 ± 1.9 µM | IC50 (HepG2 proteasome): 70 ± 10 nM

CC(C)C[C@H](NC(=O)[C@H](Cc1ccccc1)NC(=O)c1cnccn1)B(O)O [Compound 1, bortezomib, reference compound]
M. smegmatis ΔprcAB MIC50 (M. smegmatis ΔprcAB): 6 ± 0 µM | MIC50 (M. smegmatis wild-type): 5 µM (≈ 1.92 µg/mL) | MIC50 (M. tuberculosis H37Rv; 5 days): 4.3 ± 1.3 µM (≈ 1.65 µg/mL) | MIC90 (M. tuberculosis H37Rv; 5 days): 12 ± 0.5 µM (≈ 4.61 µg/mL) | MIC50 (Mycobacterium bovis BCG): 1.8 µM (≈ 0.692 µg/mL) | GI50 [1]: 250000 nM | GI50 [2]: 400000 nM | IC50 (ClpP1P2; read-out: M. smegmatis ΔprcAB IC50 (μM) for ClpP1P2, whole-cell RFP-SsrA reporter): 6 ± 0.5 µM

CCOC(=O)c1ccc(OC(=O)CCCCCN=C(N)N)cc1 [Gabexate mesylate (GM), Gabexate mesylate]
IC50 (Elastase): 1.81 µM | IC50 (FXa): 5.3 µM | IC50 (Kallikrein 5): 8.06 µM | IC50 (Kallikrein 7): 29.3 µM | IC50 (Kallikrein 12): 0.351 µM | IC50 (Kallikrein 13): 17.6 µM | IC50 (Kallikrein 14): 0.969 µM | IC50 (Matriptase 2): 7.56 µM | IC50 (Plasma kallikrein): 0.475 µM | IC50 (Plasmin): 0.936 µM | IC50 (Thrombin a): 3.73 µM | IC50 (Trypsin): 0.0669 µM | IC50 (Tryptase b2): 0.0873 µM | IC50 (Tryptase g1): 0.0506 µM | IC50 (Urokinase): 0.1 µM

CC[C@H](C)[C@H](NC(C)=O)C(=O)N[C@@H](CCC(=O)O)C(=O)N[C@H](C(=O)N[C@H](C=O)CC(=O)O)[C@@H](C)O [IETD-CHO] (Ac-IETD-aldehyde)
IC50 (Caspase 1): 0.0545 µM | IC50 (Caspase 2): 0.626 µM | IC50 (Caspase 4): 2.73 µM | IC50 (Caspase 5): 0.0213 µM | IC50 (Caspase 8): 0.00166 µM | IC50 (Caspase 9): 0.0553 µM | IC50 (Caspase 10): 0.0177 µM | IC50 (Caspase 11): 0.68 µM

O=C(N[C@@H](Cc1ccccc1)C(=O)N[C@@H](Cc1ccccc1)B(O)O)c1cnccn1 [Compound 31, ((R)-2-phenyl-1-((S)-3-phenyl-2-(pyrazine-2-carboxamido)propanamido)ethyl)boronic acid]
M. smegmatis ΔprcAB MIC50 (M. smegmatis ΔprcAB): 16.5 µM and 16.5 ± 8.5 µM | MIC50 (M. tuberculosis H37Rv; 5 days): 6 µM (≈ 2.51 µg/mL) | MIC90 (M. tuberculosis H37Rv; 5 days): 20 µM (≈ 8.37 µg/mL) | IC50 (ClpP1P2; [3]): 7.5 ± 2.6 µM | IC50 (HepG2 proteasome): 50 ± 10 nM
